By IC50 is commonly meant the concentration needed to halve the response being measured.

SMILES strings stand for the structures.

Among the data in ChEMBL document CHEMBL4680119, “Battle tactics against MMP-9; discovery of novel non-hydroxamate MMP-9 inhibitors endowed with PI3K/AKT signaling attenuation and caspase 3/7 activation via Ugi bis-amide synthesis” (Eur J Med Chem, 2020) are IC50, EC100 and selectivity ratio values, retold here.

Series [1] has as its system WI-38. Kind of series: Cytotoxicity against human WI-38 cells assessed as reduction in cell viability by MTT assay. To be noted: for IC50: Homo sapiens, WI-38; for EC100: human, wi-38. Format: cell-based. (In general: Tetrazolium dyes change colour on reduction, which living cells bring about.)
Series [2] in a line: Anticancer activity against […] cells assessed as reduction in cell viability by MTT assay. To be noted: Mus musculus. In kind it is functional, cell-based.
The test system of series [3] is HepG2. Kind of series: Anticancer activity against human HepG2 cells assessed as reduction in cell viability by MTT assay. Format: functional, cell-based.
Series [4] relates to MCF7. In words: cells. To be noted: Homo sapiens.
Description: Anticancer activity against human MCF7 cells assessed as reduction in cell viability by MTT assay
Series [5] in a line: in vitro. The conditions noted are these: human, WI38 cells and HepG2 cells.
Description: Selectivity index, ratio of IC50 for human WI38 cells to IC50 for human HepG2 cells
Series [6] addresses Matrix metalloproteinase-9 (Homo sapiens, UniProt P14780). Kind of series: Inhibition of MMP-9 (unknown origin) by colorimetric assay.
Series [7] addresses 72 kDa type IV collagenase (Homo sapiens, UniProt P08253). Kind of series: Inhibition of MMP-2 (unknown origin) by colorimetric assay.
The target in series [8] is Collagenase 3 (Homo sapiens, UniProt P45452). Kind of series: Inhibition of MMP-13 (unknown origin) by colorimetric assay.

Matrix metalloproteinase-9, sequence (P14780 whole entry): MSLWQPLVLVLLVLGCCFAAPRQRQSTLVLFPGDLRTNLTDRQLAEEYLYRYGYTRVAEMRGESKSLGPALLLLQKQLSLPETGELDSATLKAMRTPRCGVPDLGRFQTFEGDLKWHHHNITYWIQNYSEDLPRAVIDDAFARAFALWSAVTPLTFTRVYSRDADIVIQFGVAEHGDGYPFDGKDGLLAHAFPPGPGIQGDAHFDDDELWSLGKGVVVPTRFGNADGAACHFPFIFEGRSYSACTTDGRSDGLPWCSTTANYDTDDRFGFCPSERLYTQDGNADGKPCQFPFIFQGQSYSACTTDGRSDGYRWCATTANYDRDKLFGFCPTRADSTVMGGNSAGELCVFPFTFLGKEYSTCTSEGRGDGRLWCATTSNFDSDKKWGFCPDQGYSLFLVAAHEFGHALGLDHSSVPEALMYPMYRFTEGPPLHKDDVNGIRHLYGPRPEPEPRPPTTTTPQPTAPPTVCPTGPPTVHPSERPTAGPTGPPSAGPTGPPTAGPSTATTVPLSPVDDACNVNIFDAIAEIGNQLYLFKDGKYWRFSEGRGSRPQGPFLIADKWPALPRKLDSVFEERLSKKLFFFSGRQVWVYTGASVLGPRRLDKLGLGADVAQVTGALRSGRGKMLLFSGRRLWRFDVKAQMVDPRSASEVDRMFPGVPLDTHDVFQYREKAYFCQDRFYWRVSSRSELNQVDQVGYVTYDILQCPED
72 kDa type IV collagenase, sequence (P08253 whole entry): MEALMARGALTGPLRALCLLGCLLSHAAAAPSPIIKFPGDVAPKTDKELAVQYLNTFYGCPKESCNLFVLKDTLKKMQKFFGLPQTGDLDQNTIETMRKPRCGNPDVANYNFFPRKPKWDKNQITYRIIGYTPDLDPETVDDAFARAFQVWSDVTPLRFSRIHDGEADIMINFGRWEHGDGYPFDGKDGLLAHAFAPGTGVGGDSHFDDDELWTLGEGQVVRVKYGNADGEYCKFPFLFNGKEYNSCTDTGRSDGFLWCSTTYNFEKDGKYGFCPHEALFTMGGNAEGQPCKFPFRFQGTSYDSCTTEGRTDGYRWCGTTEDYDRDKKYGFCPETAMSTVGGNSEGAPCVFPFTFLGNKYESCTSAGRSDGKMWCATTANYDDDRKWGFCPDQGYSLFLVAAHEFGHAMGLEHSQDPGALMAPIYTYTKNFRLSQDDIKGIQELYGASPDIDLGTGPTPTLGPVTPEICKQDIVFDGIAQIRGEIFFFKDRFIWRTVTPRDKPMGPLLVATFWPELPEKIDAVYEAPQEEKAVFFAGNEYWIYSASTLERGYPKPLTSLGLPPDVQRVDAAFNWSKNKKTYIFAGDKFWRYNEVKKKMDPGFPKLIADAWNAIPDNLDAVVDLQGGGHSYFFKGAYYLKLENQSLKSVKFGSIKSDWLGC

As for `O=C(Nc1ccc([N+](=O)[O-])cc1)C(c1ccccc1)N(C(=O)c1ccccc1[N+](=O)[O-])c1cccc(Br)c1` (configuration not stated), the half-maximal inhibitory concentration (IC50) came to 199 nM in series [1], 156 nM in series [2], 138 nM in series [3] and 168 nM in series [4]. In series [1], the EC100 amounted to 89.7 nM. Besides, in series [5], the selectivity ratio was determined as 1.44.
As for `O=C(Nc1ccc([N+](=O)[O-])cc1)C(c1ccccc1)N(C(=O)c1ccc(C(F)(F)F)cc1)c1ccccc1` (configuration not stated), the IC50 in series [1] amounted to 46 nM; in series [2], 11.6 nM; in series [3], 8 nM; in series [4] it was 12 nM. In addition, the EC100 in series [1] stood at 26.9 nM. Further, the selectivity ratio in series [5] was found to be 5.75.
For `O=C(Nc1ccc([N+](=O)[O-])cc1)C(c1ccccc1)N(C(=O)c1ccccc1[N+](=O)[O-])c1ccc(I)cc1` (configuration not stated), the half-maximal inhibitory concentration (IC50) was 318 nM in series [1], 182 nM in series [2], 180 nM in series [3] and 181 nM in series [4]. In series [1], the EC100 is recorded as 188.3 nM. Further, the selectivity ratio in series [5] was 1.77.
As for `O=C(Nc1ccc([N+](=O)[O-])cc1)C(c1ccccc1)N(C(=O)c1ccc([N+](=O)[O-])cc1)c1ccccc1` (configuration not stated), the IC50 worked out at 1200 nM in series [1], 12.1 nM in series [2], 21.2 nM in series [3] and 26.9 nM in series [4]. In series [1], the EC100 stood at 469.8 nM. Further, the selectivity ratio in series [5] is 56.7.
Consider `O=C(Nc1ccc([N+](=O)[O-])cc1)C(c1ccccc1)N(C(=O)CCC(=O)N(c1ccccc1)C(C(=O)Nc1ccc([N+](=O)[O-])cc1)c1ccccc1)c1ccccc1` (configuration not stated), for which the IC50 in series [1] was 195 nM; in series [2], 137 nM; in series [3] it was 125 nM; in series [4] it was 164 nM. Moreover, the EC100 in series [1] came out at 141.4 nM. For the same compound, the selectivity ratio in series [5] amounted to 1.56.
Regarding `Cc1ccc(N(C(=O)c2ccccc2[N+](=O)[O-])C(C(=O)Nc2ccc([N+](=O)[O-])cc2)c2ccccc2)cc1` (configuration not stated), the IC50 in series [1] amounted to 499 nM; in series [2], 182 nM; in series [3] it was 153 nM; in series [4] it was 295 nM. In addition, in series [1], the EC100 came to 305.4 nM. Further, in series [5], the selectivity ratio came to 3.25.
As for `O=CN(c1ccccc1)C(C(=O)Nc1ccc([N+](=O)[O-])cc1)c1ccccc1` (configuration not stated), the concentration for half-maximal inhibition (IC50) was 543 nM in series [1], 94.1 nM in series [2], 107 nM in series [3] and 55.8 nM in series [4]. The EC100 in series [1] turned out to be 161.5 nM. Besides, in series [5], the selectivity ratio is 5.09.
For `CC(C)(C)OC(=O)NCC(=O)N(c1ccccc1)C(C(=O)Nc1ccc([N+](=O)[O-])cc1)c1ccccc1` (configuration not stated), the IC50 in series [1] was determined as 42.9 nM; in series [2], 31.9 nM; in series [3], 35.9 nM; in series [4] it was 18 nM. For the same compound, in series [1], the EC100 came to 18.2 nM. The selectivity ratio in series [5] was found to be 1.2.
`O=C(Nc1ccc([N+](=O)[O-])cc1)C(c1ccccc1)N(C(=O)C(F)(F)F)c1ccccc1` (configuration not stated): the IC50 in series [1] came out at 1460 nM; in series [2], 23.9 nM; in series [3], 20.8 nM; in series [4] it was 28.4 nM. In series [1], the EC100 turned out to be 540.3 nM. In addition, the selectivity ratio in series [5] was 70.3.
Consider `O=C(Nc1ccc([N+](=O)[O-])cc1)C(c1ccccc1)N(C(=O)Cc1ccccc1)c1ccccc1` (configuration not stated), for which the IC50 in series [1] was determined as 819 nM; in series [2] it was 17.6 nM; in series [3], 17.8 nM; in series [4], 26.4 nM. Besides, in series [1], the EC100 was 290.7 nM. Besides, the selectivity ratio in series [5] turned out to be 46.
`O=C(Nc1ccc([N+](=O)[O-])cc1)C(c1ccccc1)N(C(=O)C(Cl)(Cl)Cl)c1ccccc1` (configuration not stated): the IC50 in series [1] is 4560 nM; in series [2], 22.8 nM; in series [3], 30.9 nM; in series [4], 11 nM. The EC100 in series [1] was 1912 nM. Also, the selectivity ratio in series [5] turned out to be 148.
Regarding `NCC(=O)N(c1ccccc1)C(C(=O)Nc1ccc([N+](=O)[O-])cc1)c1ccccc1` (configuration not stated), the IC50 was 218 nM in series [1], 168 nM in series [2], 152 nM in series [3] and 165 nM in series [4]. Also, the EC100 in series [1] came out at 84.9 nM. For the same compound, the selectivity ratio in series [5] stood at 1.44.
As for `O=C(Nc1ccc([N+](=O)[O-])cc1)C(c1ccc(Br)cc1)N(C(=O)c1ccccc1[N+](=O)[O-])c1ccccc1` (configuration not stated), the IC50 in series [1] is 233 nM; in series [2] it was 82.1 nM; in series [3] it was 76.1 nM; in series [4], 84.7 nM. In series [1], the EC100 came out at 12.7 nM. For the same compound, the selectivity ratio in series [5] is 3.06.
Regarding `O=C(Nc1ccc([N+](=O)[O-])cc1)C(c1ccc([N+](=O)[O-])cc1)N(C(=O)c1ccc([N+](=O)[O-])cc1)c1ccccc1` (configuration not stated), the IC50 in series [1] worked out at 143 nM; in series [2] it was 189 nM; in series [3], 187 nM; in series [4], 203 nM. In series [1], the EC100 is on record as 82.4 nM. The selectivity ratio in series [5] was found to be 0.768.
As for `Cc1ccc(N(C(=O)c2ccc(C(F)(F)F)cc2)C(C(=O)Nc2ccc([N+](=O)[O-])cc2)c2ccccc2)cc1` (configuration not stated), the 50% inhibitory concentration (IC50) was 28.6 nM in series [1], 10.3 nM in series [2], 9.4 nM in series [3] and 8 nM in series [4]. Further, the EC100 in series [1] is on record as 14.9 nM. In addition, the selectivity ratio in series [5] came out at 3.04.
Consider `COc1ccc(S(=O)(=O)N(CC(=O)NO)CC(C)C)cc1`, for which the IC50 in series [6] amounted to 78.5 nM; in series [7] it was 69 nM; in series [8], 131 nM.
Regarding `CC(=O)N(c1ccccc1)C(C(=O)Nc1ccc([N+](=O)[O-])cc1)c1ccccc1` (configuration not stated), the IC50 worked out at 509 nM in series [1], 287 nM in series [2], 180 nM in series [3] and 309 nM in series [4]. The EC100 in series [1] was found to be 301 nM. Further, in series [5], the selectivity ratio was determined as 2.83.
As to `Cc1ccc(N(C(=O)c2ccc(Cl)cc2)C(C(=O)Nc2ccc([N+](=O)[O-])cc2)c2ccccc2)cc1` (configuration not stated), the IC50 in series [1] is 42.7 nM; in series [2], 54.2 nM; in series [3], 50.7 nM; in series [4] it was 64 nM. For the same compound, in series [1], the EC100 was 18.25 nM. Further, in series [5], the selectivity ratio worked out at 0.842.
Regarding `Cc1ccc(N(C(=O)c2ccc(Br)cc2)C(C(=O)Nc2ccc([N+](=O)[O-])cc2)c2ccccc2)cc1` (configuration not stated), the IC50 in series [1] worked out at 260 nM; in series [2], 121 nM; in series [3] it was 111 nM; in series [4] it was 122 nM. For the same compound, in series [1], the EC100 is on record as 36.1 nM. In series [5], the selectivity ratio is 2.34.
`O=C(Nc1ccc([N+](=O)[O-])cc1)C(c1ccccc1[N+](=O)[O-])N(C(=O)c1ccccc1[N+](=O)[O-])c1ccccc1` (configuration not stated): the half-maximal inhibitory concentration (IC50) in series [1] turned out to be 360 nM; in series [2], 208 nM; in series [3], 435 nM; in series [4], 184 nM. Besides, the EC100 in series [1] turned out to be 198.9 nM. For the same compound, the selectivity ratio in series [5] turned out to be 0.828.
In the case of `O=C(Nc1ccc([N+](=O)[O-])cc1)C(c1ccccc1)N(C(=O)/C=C/c1ccccc1)c1ccccc1` (configuration not stated), the IC50 came out at 29.1 nM in series [1], 13 nM in series [2], 19.5 nM in series [3] and 12.9 nM in series [4]. In addition, in series [1], the EC100 is 4.8 nM. The selectivity ratio in series [5] amounted to 1.49.
Regarding `O=C(Nc1ccc([N+](=O)[O-])cc1)C(c1ccccc1[N+](=O)[O-])N(C(=O)C(F)(F)F)c1ccccc1` (configuration not stated), the IC50 in series [1] was found to be 348 nM; in series [2], 52.6 nM; in series [3] it was 68.8 nM; in series [4] it was 14.8 nM. In addition, in series [1], the EC100 came out at 112.4 nM. Also, in series [5], the selectivity ratio was determined as 5.06.
For the compound `O=C(Nc1ccc([N+](=O)[O-])cc1)C(c1ccccc1)N(C(=O)c1ccccc1[N+](=O)[O-])c1ccccc1` (configuration not stated), the IC50 in series [1] was determined as 422 nM; in series [2], 29.4 nM; in series [3] it was 41.8 nM; in series [4], 33.1 nM. In addition, in series [1], the EC100 came to 130.2 nM. Further, in series [5], the selectivity ratio is 10.1.
For `O=C(Nc1ccc([N+](=O)[O-])cc1)C(c1ccc([N+](=O)[O-])cc1)N(C(=O)c1ccccc1[N+](=O)[O-])c1ccccc1` (configuration not stated), the IC50 in series [1] was found to be 210 nM; in series [2], 162 nM; in series [3], 159 nM; in series [4], 172 nM. Also, the EC100 in series [1] is reported as 158.3 nM. In addition, the selectivity ratio in series [5] was found to be 1.32.
In the case of `Cc1ccc(N(C(=O)c2ccc([N+](=O)[O-])cc2)C(C(=O)Nc2ccc([N+](=O)[O-])cc2)c2ccccc2)cc1` (configuration not stated), the IC50 in series [1] worked out at 182 nM; in series [2] it was 92.3 nM; in series [3] it was 74.6 nM; in series [4], 104 nM. The EC100 in series [1] was 113.6 nM. Besides, the selectivity ratio in series [5] was determined as 2.44.
